According to publication PMC4503722, “Novel Phenotypic Outcomes Identified for a Public Collection of Approved Drugs from a Publicly Accessible Panel of Assays” (PLoS ONE, 2015):
Like-named read-outs stand apart in the source and are kept apart here.

Key:
SNU-C1 = test: cells; assay type: cell-based; conditions: for IC50: read-out: Basal_Viability ATP SNU-C1 summarized IC50
[1] = system: ECFC/ADSC co-culture cell nuclei number; conditions: for IC50: read-out: VEGF_ADSC\ECFC Angio Hoechst NucArea summarized IC50
HT-29 = test: cells; assay type: cell-based; conditions: for IC50: read-out: Basal_Viability ATP HT-29 summarized IC50
HCT116 = test: cells; assay type: cell-based; conditions: for IC50: read-out: Basal_Viability ATP HCT116 summarized IC50
RKO = test: cells; assay type: cell-based; conditions: for IC50: read-out: Basal_Viability ATP RKO summarized IC50
[2] = system: HCT116 cells treated with a GSK3β inhibitor; test: cells; assay type: cell-based; conditions: for IC50: read-out: GSK3b inh pretreated_Viability ATP HCT116 summarized IC50; for IC50/EC50, GSK3b inh pretreated_Viability ATP HCT116 (assay number 26): GSK3b inh pretreated
Colo320 = test: cells; assay type: cell-based; conditions: for IC50: read-out: Basal_Viability ATP Colo 320 summarized IC50
DLD-1 = test: cells; assay type: cell-based; conditions: for IC50: read-out: Basal_Viability ATP DLD-1 summarized IC50
SW480 = test: cells; assay type: cell-based; conditions: for IC50: read-out: Basal_Viability ATP SW480 summarized IC50
[3] = system: endothelial tube formation in co-cultures of ECFCs and ADSCs treated with VEGF; test: cells; assay type: cell-based, human; conditions: for IC50: read-out: VEGF_ADSC\ECFC Angio CD31 TubeArea summarized IC50
[4] = assay number 26, GSK3b inhibitor pretreated

CN(C)c1ccc(C(=C2C=CC(=[N+](C)C)C=C2)c2ccccc2)cc1 [NCGC00013058-02]
IC50 (SNU-C1): 0.0354 µM | IC50 [1]: 1.72 µM | IC50 (HT-29): 0.00982 µM | IC50 (HCT116): 0.0179 µM | IC50 (RKO): 0.118 µM | IC50 [2]: 0.00983 µM | IC50 (Colo320): 0.161 µM | IC50 (DLD-1): 0.0218 µM | IC50 (SW480): 0.00922 µM | IC50 [3]: 0.0605 µM

CC1(C)[C@H](C=C(Cl)Cl)[C@@H]1C(=O)OCc1c(F)c(F)cc(F)c1F [NCGC00344542-01]
Basal_Viability ATP SNU-C1 IC50/EC50 (SNU-C1; assay number 30, concentration response): > 20 µM | VEGF_ADSC\ECFC Angio Hoechst NucArea IC50/EC50 [1]: > 10 µM | Basal_Viability ATP HT-29 IC50/EC50 (HT-29; assay number 28, concentration response): > 20 µM | Basal_Viability ATP HCT116 IC50/EC50 (HCT116; assay number 25, basal, concentration response): > 20 µM | Basal_Viability ATP RKO IC50/EC50 (RKO; assay number 29, concentration response): > 20 µM | GSK3b inh pretreated_Viability ATP HCT116 IC50/EC50 ([2]; assay number 26, GSK3b inhibitor pretreated, concentration response): > 20 µM | Basal_Viability ATP Colo 320 IC50/EC50 (Colo320; assay number 27, concentration response): > 20 µM | Basal_Viability ATP DLD-1 IC50/EC50 (DLD-1; assay number 23, concentration response): > 20 µM | Basal_Viability ATP SW480 IC50/EC50 (SW480; assay number 24, concentration response): > 20 µM | VEGF_ADSC\ECFC Angio CD31 TubeArea IC50/EC50 [3]: > 10 µM

COP(=S)(OC)Oc1ccc(Sc2ccc(OP(=S)(OC)OC)cc2)cc1 [NCGC00163910-05]
IC50 (SNU-C1; assay number 30, basal): 3.03 µM | IC50 [1]: > 10 µM | IC50 (HT-29; assay number 28, basal): > 20 µM | IC50 (HCT116; assay number 25, basal): > 20 µM | IC50 (RKO; assay number 29, basal): 12.1 µM | IC50 [2, 4]: > 20 µM | IC50 (Colo320; assay number 27, basal): > 20 µM | IC50 (DLD-1; assay number 23, basal): > 20 µM | IC50 (SW480; assay number 24, basal): 0.0118 µM | IC50 [3]: > 10 µM

O=C1NCCN1CCN1CCC(c2cn(-c3ccc(F)cc3)c3ccc(Cl)cc23)CC1 [NCGC00181782-03]
IC50/EC50, Basal_Viability ATP SNU-C1 (assay number 30) (SNU-C1; basal): 1.4252 µM | IC50/EC50, VEGF_ADSC\ECFC Angio Hoechst NucArea (assay number 3) [1]: > 10 µM | IC50/EC50, Basal_Viability ATP HT-29 (assay number 28) (HT-29; basal): 2.8613 µM | IC50/EC50, Basal_Viability ATP HCT116 (assay number 25) (HCT116; basal): 2.1598 µM | IC50/EC50, Basal_Viability ATP RKO (assay number 29) (RKO; basal): 2.6022 µM | IC50/EC50, GSK3b inh pretreated_Viability ATP HCT116 (assay number 26) [2]: 3.5177 µM | IC50/EC50, Basal_Viability ATP Colo 320 (assay number 27) (Colo320; basal): 3.6991 µM | IC50/EC50, Basal_Viability ATP DLD-1 (assay number 23) (DLD-1; basal): 5.6233 µM | IC50/EC50, Basal_Viability ATP SW480 (assay number 24) (SW480; basal): 2.8086 µM | IC50/EC50, VEGF_ADSC\ECFC Angio CD31 TubeArea (assay number 2) [3]: > 10 µM

Nc1c2ccccc2nc2ccccc12 [NCGC00094857-05]
IC50 (SNU-C1; assay number 30, basal): > 6.67 µM | IC50 [1]: > 10 µM | IC50 (HT-29; assay number 28, basal): > 20 µM | IC50 (HCT116; assay number 25, basal): 2.02 µM | IC50 (RKO; assay number 29, basal): > 6.67 µM | IC50 [2, 4]: 3.87 µM | IC50 (Colo320; assay number 27, basal): 8.81 µM | IC50 (DLD-1; assay number 23, basal): > 20 µM | IC50 (SW480; assay number 24, basal): > 20 µM | IC50 [3]: > 10 µM

CC(CC=O)CCCC(C)(C)O (centres unmarked) [NCGC00181031-03]
Basal_Viability ATP SNU-C1 IC50/EC50 (SNU-C1; assay number 30, basal): > 20 µM | VEGF_ADSC\ECFC Angio Hoechst NucArea IC50/EC50 [1]: > 10 µM | Basal_Viability ATP HT-29 IC50/EC50 (HT-29; assay number 28, basal): > 20 µM | Basal_Viability ATP HCT116 IC50/EC50 (HCT116; assay number 25, basal): > 20 µM | Basal_Viability ATP RKO IC50/EC50 (RKO; assay number 29, basal): > 20 µM | GSK3b inh pretreated_Viability ATP HCT116 IC50/EC50 [2, 4]: > 20 µM | Basal_Viability ATP Colo 320 IC50/EC50 (Colo320; assay number 27, basal): > 20 µM | Basal_Viability ATP DLD-1 IC50/EC50 (DLD-1; assay number 23, basal): > 20 µM | Basal_Viability ATP SW480 IC50/EC50 (SW480; assay number 24, basal): > 20 µM | VEGF_ADSC\ECFC Angio CD31 TubeArea IC50/EC50 [3]: > 10 µM

NC(=O)n1c(O)c(C(=O)c2cccs2)c2cc(Cl)ccc21 [NCGC00263542-01]
IC50/EC50, Basal_Viability ATP SNU-C1 (assay number 30) (SNU-C1; basal): 0.5375 µM | IC50/EC50, VEGF_ADSC\ECFC Angio Hoechst NucArea (assay number 3) [1]: > 10 µM | IC50/EC50, Basal_Viability ATP HT-29 (assay number 28) (HT-29; basal): 5.6005 µM | IC50/EC50, Basal_Viability ATP HCT116 (assay number 25) (HCT116; basal): 2.309 µM | IC50/EC50, Basal_Viability ATP RKO (assay number 29) (RKO; basal): 4.703 µM | IC50/EC50, GSK3b inh pretreated_Viability ATP HCT116 (assay number 26) [2]: 3.787 µM | IC50/EC50, Basal_Viability ATP Colo 320 (assay number 27) (Colo320; basal): 1.643 µM | IC50/EC50, Basal_Viability ATP DLD-1 (assay number 23) (DLD-1; basal): 6.9467 µM | IC50/EC50, Basal_Viability ATP SW480 (assay number 24) (SW480; basal): 1.02 µM | IC50/EC50, VEGF_ADSC\ECFC Angio CD31 TubeArea (assay number 2) [3]: > 10 µM

N/C(=N\N=C\c1ccc(Cl)cc1)N/N=C/c1ccc(Cl)cc1 [NCGC00181026-02]
IC50/EC50, Basal_Viability ATP SNU-C1 (assay number 30) (SNU-C1; basal): 0.2795 µM | IC50/EC50, VEGF_ADSC\ECFC Angio Hoechst NucArea (assay number 3) [1]: > 10 µM | IC50/EC50, Basal_Viability ATP HT-29 (assay number 28) (HT-29; basal): 0.6811 µM | IC50/EC50, Basal_Viability ATP HCT116 (assay number 25) (HCT116; basal): 0.394 µM | IC50/EC50, Basal_Viability ATP RKO (assay number 29) (RKO; basal): 0.47 µM | IC50/EC50, GSK3b inh pretreated_Viability ATP HCT116 (assay number 26) [2]: 0.3442 µM | IC50/EC50, Basal_Viability ATP Colo 320 (assay number 27) (Colo320; basal): 0.4583 µM | IC50/EC50, Basal_Viability ATP DLD-1 (assay number 23) (DLD-1; basal): 0.6538 µM | IC50/EC50, Basal_Viability ATP SW480 (assay number 24) (SW480; basal): 0.2252 µM | IC50/EC50, VEGF_ADSC\ECFC Angio CD31 TubeArea (assay number 2) [3]: > 10 µM
